# Source: US20240279191A1, “SMALL MOLECULE INHIBITORS OF TEAD-YAP” (The General Hospital Corporation, priority 2021, published 2024)
# Tests used:
# [1] = target: association of YAP with endogenous TEAD1 and pan-TEAD (Homo sapiens, UniProt P28347); experiment: YAP co-immunoprecipitation (Co-IP) assay in H226 cells; assay type: cell-based; conditions: H226, 24 h, dose-dependent, FIG. 5A
# Method: H226 cells were treated with DMSO or TM2 for 24 h. The cells were then washed and harvested by cold DPBS. The cell pellets were isolated by centrifugation (500×g, 10 min) and lysed by lysis buffer (50 mM Tris-HCl pH 7.5, 10% Glycerol, 1% NP-40, 300 mM NaCl, 150 mM KCl, 5 mM EDTA, phosphatase inhibitor cocktail, complete EDTA-free protease inhibitors cocktail) on ice. After dilution with 50 mM Tris-HCl pH 7.5, 10% Glycerol, 1% NP-40, 5 mM EDTA, the protein samples were incubated with mouse anti-YAP antibody (sc-101199, Santa Cruz) overnight at 4° C. and immunoprecipitated with prewashed protein A/G beads (P5030-1, UBPBio) for another 4 h at 4° C. The bound proteins were washed with 0.1% PBST for three times and eluted with 1×SDS loading buffer and analyzed with SDS-PAGE. Anti-TEAD1 (1:1000, 12292S, Cell Signaling), anti-pan-TEAD (1:1000, 13295, Cell Signaling) or anti-YAP (1:1000, 140745, Cell Signaling) antibody were used to detect TEAD1, pan-TEAD or YAP, respectively. Secondary antibody was anti-rabbit (1:5000, 7074S, Cell Signaling).
# [2] = system: Mouse hepatic progenitor organoids; experiment: Organoids viability; assay type: cell-based; conditions: 40 nM
# Method: Mouse hepatic progenitor organoids (70932, […] Tech) were seeded in 96 well plate using 20 ul Matrigel (Corning, #354230) and cultured in HepatiCult™ Organoid Growth Medium (06031, […] Tech) with or without TM2. Medium was replaced after every 48 h with fresh compound. Organoid viability was measured by PrestoBlue™ HS Cell Viability Reagent (ThermoFisher, #P50200) following the manufacturer's protocol.
# [3] = system: TEAD-YAP target genes (CTGF, Cyr61, ANKRD1); experiment: Quantitative RT-PCR of TEAD-YAP target genes in H226 cells; assay type: cell-based, Human
# Method: […] The high-capacity cDNA reverse transcription kit (4368814, Life Technologies) was employed to obtain cDNA. Target genes expression (Cyr61, CTGF and ANKRD1) was measured with PowerUp SYB Green Master Mix kit (A25777, Life Technologies). β-actin was used as reference gene. The primers are shown below:
# H226 = H226 growth inhibition (SAR tables); assay type: cell-based; conditions: Homo sapiens, NCI-H226
# Myc-TEAD1 = Myc-TEAD1 (Homo sapiens, UniProt P28347); experiment: Inhibition of Myc-TEAD1 palmitoylation in HEK293A cells; assay type: cell-based; conditions: 24 h, dose-dependent, FIG. 2C
# Chain of Myc-TEAD1 (P28347 whole entry): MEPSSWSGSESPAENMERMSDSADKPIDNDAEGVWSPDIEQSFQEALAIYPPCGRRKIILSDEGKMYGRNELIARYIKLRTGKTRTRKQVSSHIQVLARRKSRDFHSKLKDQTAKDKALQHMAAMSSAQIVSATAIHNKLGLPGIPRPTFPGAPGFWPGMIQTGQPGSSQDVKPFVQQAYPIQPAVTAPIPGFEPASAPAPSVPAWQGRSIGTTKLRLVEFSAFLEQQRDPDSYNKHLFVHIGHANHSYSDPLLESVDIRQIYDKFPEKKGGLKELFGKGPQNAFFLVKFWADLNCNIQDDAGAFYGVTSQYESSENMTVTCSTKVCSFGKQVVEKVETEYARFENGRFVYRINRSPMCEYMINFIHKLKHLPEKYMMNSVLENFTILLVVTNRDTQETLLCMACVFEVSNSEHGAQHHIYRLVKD
# Method: HEK293A cells were seeded in 6 cm dishes overnight and transfected with plasmids using PEI reagent (1 μg/μL). Briefly, PRK5-Myc-TEAD1 (33109, Addgene) and PEI were diluted in serum-free DMEM medium in two tubes (DNA: PEI ratio=1:2). After standing still for 5 mins, mix them well and stay for another 20 mins. The mixture was then added to dishes directly.
# HEK293A cells with or without TEAD overexpression were pretreated with DMSO or TM2 in medium with 10% dialyzed fetal bovine serum (DFBS) for 8 h and labeled by Alkynyl Palmitic acid (1165, Click Chemistry Tools) for another 16 h. The cells were then washed and harvested by cold DPBS (14190250, Life Technologies). The cell pellets were isolated by centrifugation (500×g, 10 min) and lysed by TEA lysis buffer (50 mM TEA-HCl, pH 7.4, 150 mM NaCl, 1% Triton X-100, 0.2% SDS, 1×Protease inhibitor-EDTA free cocktail (05892791001, Roche), phosphatase inhibitor cocktail (P0044, Sigma-Aldrich)) on ice for 30 mins. The protein concentration was determined using Bio-Rad assay and adjusted to 1 mg/mL. 100 μL of protein sample mixture was treated with 10 μL of freshly prepared “click” mixture containing 1 mM TBTA, 10 mM TCEP, 10 mM CuSO4, 1 mM TBTA Biotin-Azide and incubated for 1 h at room temperature. […] The bound proteins were eluted with a buffer containing 10 mM EDTA pH 8.2 and 95% formamide and analyzed with SDS-PAGE. […]
# Chain of association of YAP with endogenous TEAD1 and pan-TEAD (P28347 whole entry): as above
smiles,measurement,setting,value
"O=C(Nc1ccccc1)N1CCN(C(=O)c2cccc(OCCC3CCCCC3)c2)CC1 [TM2, 4-(3-(2-cyclohexylethoxy)benzoyl)-N-phenylpiperazine-1-carboxamide]",association of YAP with endogenous TEAD1 and pan-TEAD (in words),[1],dramatically blocked
same,disruption of organoids growth,[2],more than 85%
same,expression level of CTGF and ANKDR1 (in words),"[3]; H226, 24 and 48 h",significantly suppressed
same,expression of Cyr61 (in words),"[3]; H226, 48 h",strong response
same,GI50,H226,73 nM
same,Myc-TEAD1 palmitoylation in cells (in words),Myc-TEAD1,dramatically suppresses
